Assay results from patent US20040171624A1, “Pharmaceutical composition for treating mood disorders” (priority 2001, published 2004).

System: mouse
Type: in vivo
Conditions: oral administration at 5 g/kg weight
Description: The theanine used in the present invention has high safety. […] Also, especially L-theanine is known as a main component of umami (tastiness) of the green tea, and is also used as a food additive giving umami, without the limitation of its added amount under the regulation for food hygiene. Moreover, contrary to the conventional drugs, since there is no side effect by theanine at all, the mood disorders can be safely and effectively treated, ameliorated or the like according to the composition of the present invention.

**Q.** For `CCNC(=O)CC[C@H](N)C(=O)O` [theanine], which cases of death is on record?
**A.** Its cases of death is “no cases of death”.
